Assay results published in PubChem BioAssay (NCI).
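Five compound concentrations were applied to cells in 96-well plates for 48 hours; endpoints were derived by simple linear interpolation of the resulting dose-response curve. TGI denotes the concentration required for complete inhibition of growth.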

How the values were obtained:
Assay in all cases: growth of human tumour cells (NCI), 48 h
786-0 renal = test system: 786-0 renal
A498 renal = test system: A498 renal
A549 NSCLC = test system: A549 NSCLC
ACHN renal = test system: ACHN renal
BT-549 breast = test system: BT-549 breast
CAKI-1 renal = test system: CAKI-1 renal
CCRF-CEM leukemia = test system: CCRF-CEM leukemia
COLO 205 colon = test system: COLO 205 colon
DU-145 prostate = test system: DU-145 prostate
EKVX NSCLC = test system: EKVX NSCLC
HCC-2998 colon = test system: HCC-2998 colon
HCT-116 colon = test system: HCT-116 colon
HCT-15 colon = test system: HCT-15 colon
HL-60(TB) leukemia = test system: HL-60(TB) leukemia
HOP-62 NSCLC = test system: HOP-62 NSCLC
HOP-92 NSCLC = test system: HOP-92 NSCLC
HS 578T breast = test system: HS 578T breast
HT29 colon = test system: HT29 colon
IGROV1 ovarian = test system: IGROV1 ovarian
K-562 leukemia = test system: K-562 leukemia
KM12 colon = test system: KM12 colon
LOX IMVI melanoma = test system: LOX IMVI melanoma
M14 melanoma = test system: M14 melanoma
MCF7 breast = test system: MCF7 breast
MDA-MB-231 breast = test system: MDA-MB-231 breast
MDA-MB-435 = test system: MDA-MB-435
MDA-N = test system: MDA-N
MOLT-4 leukemia = test system: MOLT-4 leukemia
NCI-H226 lung = test system: NCI-H226 lung
NCI-H23 lung = test system: NCI-H23 lung
NCI-H460 lung = test system: NCI-H460 lung
NCI-H522 lung = test system: NCI-H522 lung
NCI/ADR-RES ovarian = test system: NCI/ADR-RES ovarian
OVCAR-3 ovarian = test system: OVCAR-3 ovarian
OVCAR-4 ovarian = test system: OVCAR-4 ovarian
OVCAR-5 ovarian = test system: OVCAR-5 ovarian
OVCAR-8 ovarian = test system: OVCAR-8 ovarian
PC-3 prostate = test system: PC-3 prostate
RPMI-8226 leukemia = test system: RPMI-8226 leukemia
RXF 393 renal = test system: RXF 393 renal
SF-268 CNS = test system: SF-268 CNS
SF-295 CNS = test system: SF-295 CNS
SF-539 CNS = test system: SF-539 CNS
SK-MEL-2 melanoma = test system: SK-MEL-2 melanoma
SK-MEL-28 melanoma = test system: SK-MEL-28 melanoma
SK-MEL-5 melanoma = test system: SK-MEL-5 melanoma
SK-OV-3 ovarian = test system: SK-OV-3 ovarian
SN12C renal = test system: SN12C renal
SNB-19 CNS = test system: SNB-19 CNS
SNB-75 CNS = test system: SNB-75 CNS
SR leukemia = test system: SR leukemia
SW-620 colon = test system: SW-620 colon
T-47D breast = test system: T-47D breast
TK-10 renal = test system: TK-10 renal
U251 CNS = test system: U251 CNS
UACC-257 melanoma = test system: UACC-257 melanoma
UACC-62 melanoma = test system: UACC-62 melanoma
UO-31 renal = test system: UO-31 renal
MALME-3M melanoma = test system: MALME-3M melanoma

## CCc1nc(N)nc(N)c1-c1ccc(Cc2ccccc2)c([N+](=O)[O-])c1
786-0 renal
  TGI: > 60.7 µM
A498 renal
  TGI: > 74.2 µM
A549 NSCLC
  TGI: > 70.7 µM
ACHN renal
  TGI: > 61.2 µM
BT-549 breast
  TGI: > 65.8 µM
CAKI-1 renal
  TGI: > 100 µM
CCRF-CEM leukemia
  TGI: > 62 µM
COLO 205 colon
  TGI: > 65.4 µM
DU-145 prostate
  TGI: > 76.3 µM
EKVX NSCLC
  TGI: > 58.8 µM
HCC-2998 colon
  TGI: > 64.6 µM
HCT-116 colon
  TGI: > 61.1 µM
HCT-15 colon
  TGI: > 59.7 µM
HL-60(TB) leukemia
  TGI: > 53.4 µM
HOP-62 NSCLC
  TGI: > 69.7 µM
HOP-92 NSCLC
  TGI: > 59.3 µM
HS 578T breast
  TGI: > 67.1 µM
HT29 colon
  TGI: > 61.5 µM
IGROV1 ovarian
  TGI: > 64.2 µM
K-562 leukemia
  TGI: > 59.5 µM
KM12 colon
  TGI: > 62.4 µM
LOX IMVI melanoma
  TGI: > 80.9 µM
M14 melanoma
  TGI: > 84.9 µM
MCF7 breast
  TGI: > 65.1 µM
MDA-MB-231 breast
  TGI: > 70.8 µM
MDA-MB-435
  TGI: > 100 µM
MDA-N
  TGI: > 81800 nM
MOLT-4 leukemia
  TGI: > 63.1 µM
NCI-H226 lung
  TGI: > 68.9 µM
NCI-H23 lung
  TGI: > 60.4 µM
NCI-H460 lung
  TGI: > 60.8 µM
NCI-H522 lung
  TGI: > 35800 nM
NCI/ADR-RES ovarian
  TGI: > 62.8 µM
OVCAR-3 ovarian
  TGI: > 76 µM
OVCAR-4 ovarian
  TGI: > 93.3 µM
OVCAR-5 ovarian
  TGI: > 100 µM
OVCAR-8 ovarian
  TGI: > 62.1 µM
PC-3 prostate
  TGI: > 100 µM
RPMI-8226 leukemia
  TGI: > 54.3 µM
RXF 393 renal
  TGI: > 84.3 µM
SF-268 CNS
  TGI: > 56.2 µM
SF-295 CNS
  TGI: > 65.5 µM
SF-539 CNS
  TGI: > 62.4 µM
SK-MEL-2 melanoma
  TGI: > 100 µM
SK-MEL-28 melanoma
  TGI: > 100000 nM
SK-MEL-5 melanoma
  TGI: > 100000 nM
SK-OV-3 ovarian
  TGI: > 83.6 µM
SN12C renal
  TGI: > 100 µM
SNB-19 CNS
  TGI: > 100 µM
SNB-75 CNS
  TGI: > 60 µM
SR leukemia
  TGI: 6.11 µM
SW-620 colon
  TGI: > 64200 nM
T-47D breast
  TGI: > 85.4 µM
TK-10 renal
  TGI: > 71.4 µM
U251 CNS
  TGI: > 65.5 µM
UACC-257 melanoma
  TGI: > 71 µM
UACC-62 melanoma
  TGI: > 65.6 µM
UO-31 renal
  TGI: > 54.5 µM

## COC(=O)c1c2c(c3[nH]c4ccccc4c3c1C(=O)OC)C(=O)C1=C(C2=O)C2(Cl)C(Cl)C(Cl)C1(Cl)C2(Cl)Cl (configuration not stated)
786-0 renal
  TGI: 8.07 µM
A498 renal
  TGI: 3.03 µM
A549 NSCLC
  TGI: > 100 µM
ACHN renal
  TGI: 4.6 µM
BT-549 breast
  TGI: 4.34 µM
CAKI-1 renal
  TGI: 9.19 µM
CCRF-CEM leukemia
  TGI: 6.15 µM
COLO 205 colon
  TGI: 3.19 µM
DU-145 prostate
  TGI: > 100 µM
EKVX NSCLC
  TGI: > 100 µM
HCC-2998 colon
  TGI: 6.17 µM
HCT-116 colon
  TGI: > 100 µM
HL-60(TB) leukemia
  TGI: 7.78 µM
HOP-62 NSCLC
  TGI: 21.7 µM
HOP-92 NSCLC
  TGI: 3.68 µM
HS 578T breast
  TGI: 20.8 µM
HT29 colon
  TGI: 7.07 µM
IGROV1 ovarian
  TGI: 8.52 µM
K-562 leukemia
  TGI: 23.2 µM
KM12 colon
  TGI: 17.3 µM
LOX IMVI melanoma
  TGI: 3.91 µM
M14 melanoma
  TGI: 5.68 µM
MALME-3M melanoma
  TGI: 4.05 µM
MCF7 breast
  TGI: 3.42 µM
MDA-MB-231 breast
  TGI: 7.59 µM
MDA-MB-435
  TGI: 3.09 µM
MDA-N
  TGI: 2750 nM
MOLT-4 leukemia
  TGI: 3.67 µM
NCI-H23 lung
  TGI: 4.04 µM
NCI-H460 lung
  TGI: 13.8 µM
NCI-H522 lung
  TGI: 2720 nM
NCI/ADR-RES ovarian
  TGI: 7.19 µM
OVCAR-3 ovarian
  TGI: 8.98 µM
OVCAR-4 ovarian
  TGI: 6.31 µM
OVCAR-5 ovarian
  TGI: > 100 µM
OVCAR-8 ovarian
  TGI: 5.28 µM
PC-3 prostate
  TGI: 10.8 µM
RPMI-8226 leukemia
  TGI: 5.09 µM
SF-268 CNS
  TGI: 6.84 µM
SF-295 CNS
  TGI: 90.9 µM
SF-539 CNS
  TGI: 4.51 µM
SK-MEL-28 melanoma
  TGI: 2970 nM
SK-MEL-5 melanoma
  TGI: 2750 nM
SK-OV-3 ovarian
  TGI: 37 µM
SN12C renal
  TGI: 5.98 µM
SNB-19 CNS
  TGI: 24.7 µM
SNB-75 CNS
  TGI: 6.84 µM
SR leukemia
  TGI: 2.63 µM
SW-620 colon
  TGI: 1400 nM
T-47D breast
  TGI: 16.3 µM
TK-10 renal
  TGI: 17.5 µM
U251 CNS
  TGI: 7.48 µM
UACC-62 melanoma
  TGI: 4.59 µM
UO-31 renal
  TGI: 8.65 µM
